Source: paper PMC5587766, “Towards designer organelles by subverting the peroxisomal import pathway” (Nature Communications, 2017)
The star is where a group is joined. Dansyl = CN(C)c1cccc2c(S(=O)(=O)*)cccc12

Legend:
AtPEX5 TPR domain = details: cited from earlier work
Excerpt: The pentapeptide library sequences were based on YQSKL, which has a nM affinity for the AtPEX5 TPR domain[17] and is widely used as a model PTS1 peptide. This sequence was randomized at the two C-terminal positions to create a library of sequences, YQSXX, where X represents any amino acid, which was efficiently prepared using split-and-pool solid-phase peptide synthesis. A dansyl fluorophore introduced at the N-terminus of the peptide added hydrophobicity to improve retention in LC-MS analysis. Deconvolution of Leu- and Ile-containing peptides was enabled by preparation of four sub-librari ...

[1] = tested on: naturally occurring PEX5 receptor; assay: PEX5 (naturally occurring receptor) binding of orthogonal peptide (overall statement)
Excerpt: PEX5 is a modular protein: the C-terminal domain recognizes PTS1 within a funnel-shaped pocket created by 7 α-helical tetratricopeptide repeats (TPRs)[14], while the N-terminal domain of PEX5, which is natively unstructured, is responsible for the docking, cargo delivery, and recycling functions of the receptor[10]. […] The PEX5*-PTS1* pair was discovered by assessing the binding of a range of variants of the C-terminal domain of Arabidopsis thaliana PEX5 (AtPEX5C) with a library of pentapeptides (Fig. 1a). […] PTS1* has low affinity for the naturally occurring PEX5 receptor. Following optimization, the C-terminal PEX5* sequence was combined with the N-terminal domain of PEX5 from the moss Physcomitrella patens (Phypa PEX5N) to create a fully functional PEX5* receptor (Fig. 1a). Concomitant expression of PEX5* with a cargo protein bearing PTS1* results in targeting of the cargo to the peroxisome at the expense of naturally occurring peroxisomal components—a process that was easily visualized in moss cells using fluorescent reporter proteins (Fig. 1b).

[2] = lissamine-labelled peptide, not pursued in FA assay
AtPEX5C D505H = biological target: T1, AtPEX5C D505H (Arabidopsis thaliana, UniProt Q9FMA3 340-728, D505H); assay: pull-down; His6-protein (12.5 µM) incubated with the combined dansyl-YQSXX library (500 nM each peptide) in 50 mM Na2HPO4, 300 mM NaCl, 10 mM 2-mercaptoethanol, 15% glycerol, pH 8.0, 4 °C, 1 h; captured on Co-NTA resin, washed, bound peptides eluted with 6 M urea and identified by ESI-LC-MS; semi-quantitative; details: both partners purified
T1 construct: Made by site-directed mutagenesis of His6-AtPEX5 (340-728) in pET-28b; also called D505H variant of AtPEX5C; source: E. coli BL21-Gold (DE3), purified (Co-NTA)
T1 sequence (looked up): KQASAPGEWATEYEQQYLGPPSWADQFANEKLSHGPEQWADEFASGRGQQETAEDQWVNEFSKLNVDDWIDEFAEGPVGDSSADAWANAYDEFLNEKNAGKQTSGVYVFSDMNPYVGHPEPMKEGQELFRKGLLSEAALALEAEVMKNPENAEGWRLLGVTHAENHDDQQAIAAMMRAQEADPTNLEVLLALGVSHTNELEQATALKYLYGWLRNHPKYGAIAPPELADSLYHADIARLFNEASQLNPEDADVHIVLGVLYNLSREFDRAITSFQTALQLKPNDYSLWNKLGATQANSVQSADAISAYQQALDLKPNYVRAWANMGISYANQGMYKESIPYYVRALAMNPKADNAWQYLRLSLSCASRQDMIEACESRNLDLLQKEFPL

AtPEX5C N601A = biological target: T2, AtPEX5C N601A (Arabidopsis thaliana, UniProt Q9FMA3 340-728, N601A); assay: as above; details: both partners purified
T2 construct: Made by site-directed mutagenesis of His6-AtPEX5 (340-728) in pET-28b; also called N601A variant; source: E. coli BL21-Gold (DE3), purified (Co-NTA)
T2 sequence (looked up): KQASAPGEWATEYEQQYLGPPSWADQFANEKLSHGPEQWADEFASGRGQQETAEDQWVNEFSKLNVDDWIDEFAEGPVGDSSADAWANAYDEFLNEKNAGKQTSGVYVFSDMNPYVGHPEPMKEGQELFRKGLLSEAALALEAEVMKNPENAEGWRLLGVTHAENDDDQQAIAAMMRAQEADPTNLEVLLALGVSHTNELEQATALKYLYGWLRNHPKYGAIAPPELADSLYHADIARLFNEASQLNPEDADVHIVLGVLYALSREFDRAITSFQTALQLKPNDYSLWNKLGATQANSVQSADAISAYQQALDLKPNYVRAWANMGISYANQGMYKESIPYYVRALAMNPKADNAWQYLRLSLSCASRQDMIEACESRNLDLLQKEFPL

For YQSKL [model PTS1 peptide], the “affinity for AtPEX5 TPR domain” value (AtPEX5 TPR domain) is listed as “nM affinity”.

For “WWRDPYSPMYQSYY [PTS1*, YQSYY including enhancing upstream residues]”, the “affinity for naturally occurring PEX5 receptor” value [1] was “low affinity”.

For lissamine-labelled YQSFY, the solubility [2] was “poor solubility”.

B1: dansyl-YQSFY (peptide)
peptide: Dansyl-YQSFY-OH
SMILES: CN(C)c1cccc2c(S(=O)(=O)N[C@@H](Cc3ccc(O)cc3)C(=O)N[C@@H](CCC(N)=O)C(=O)N[C@@H](CO)C(=O)N[C@@H](Cc3ccccc3)C(=O)N[C@@H](Cc3ccc(O)cc3)C(=O)O)cccc12
notes: member of the YQSXX pentapeptide library; Tested within the combined library of 324 peptides, not alone; source: synthetic peptide, member of the split-and-pool dansyl-YQSXX library
B1: binds (AtPEX5C D505H); binds (AtPEX5C N601A).
